These results are taken from patent US20150105252A1, “SUBSTITUTED PYRAZOLES AS HERBICIDES” (E I DU PONT DE NEMOURS AND COMPANY, priority 2013, published 2015).

Experiment [1] relates to oat, wild. In words: Test D preemergence. The experiment is classed as in vivo, Avena fatua. To be noted: scale 0 to 100. The source says:
Seeds of plant species selected from bluegrass (annual bluegrass, Poa annua), blackgrass (Alopecurus myosuroides), canarygrass (littleseed canarygrass, Phalaris minor), chickweed (common chickweed, Stellaria media), galium (catchweed bedstraw, Galium aparine), bromegrass, downy (downy bromegrass, Bromus tectorum), field poppy (Papaver rhoeas), field violet (Viola arvensis), foxtail, green (green foxtail, Setaria viridis), deadnettle (henbit deadnettle, Lamium amplexicaule), ryegrass, Italian (Italian ryegrass, Lolium multiflorum), kochia (Kochia scoparia), lambsquarters (Chenopodium album), oilseed rape (Brassica napus), pigweed (redroot pigweed, Amaranthus retroflexus), chamomile (scentless chamomile, Matricaria inodora), speedwell (bird's-eye speedwell, Veronica persica), barley, spring (spring barley, Hordeum vulgare), wheat, spring (spring wheat, Triticum aestivum), buckwheat, wild (wild buckwheat, Polygonum convolvulus), mustard, wild (wild mustard, Sinapis arvensis), oat, wild (wild oat, Avena fatua), radish, wild (wild radish, Raphanus raphanistrum), windgrass (Apera spica-venti), Russian thistle (Salsola kali), barley, winter (winter barley, Hordeum vulgare), and wheat, winter (winter wheat, Triticum aestivum) were planted into a silt loam soil and treated preemergence with test chemicals formulated in a non-phytotoxic solvent mixture which included a surfactant.
At the same time, these species were planted in pots containing Redi-Earth® planting medium (Scotts Company, 14111 Scottslawn Road, Marysville, Ohio 43041) comprising spaghnum peat moss, vermiculite, wetting agent and starter nutrients and treated with postemergence applications of the test chemicals formulated in the same manner. Plants ranged in height from 2 to 18 cm (1- to 4-leaf stage). Treated plants and controls were maintained in a controlled growth environment for 14 to 21 days after which time all species were compared to controls and visually evaluated. Plant response ratings, summarized in Table D, are based on a scale of 0 to 100 where 0 is no effect and 100 is complete control. A dash (-) response means no test result.

The subject of experiment [2] is kochia. In words: Test E preemergence. The experiment is classed as in vivo, Kochia scoparia. To be noted: 21 days, scale 0 to 100. From the text: (§1) Seeds of plant species selected from bermudagrass (Cynodon dactylon), Surinam grass (Brachiaria decumbens), crabgrass, large (large crabgrass, Digitaria sanguinalis), crabgrass, naked (naked crabgrass, Digitaria nuda), foxtail, green (green foxtail, Setaria viridis), johnsongrass (Sorghum halepense), kochia (Kochia scoparia), morningglory (pitted morningglory, Ipomoea lacunosa), nutsedge, purple (purple nutsedge, Cyperus rotundus), ragweed (common ragweed, Ambrosia elation), mustard, black (black mustard, Brassica nigra), guineagrass (Panicum maximum), dallisgrass (Paspalum dilatatum), barnyardgrass (Echinochloa crus-galli), sandbur (southern sandbur, Cenchrus echinatus), sowthistle (common sowthistle, Sonchus oleraceous), ryegrass, Italian (Italian ryegrass, Lolium multiflorum), signalgrass (broadleaf signalgrass, Brachiaria platyphylla), dayflower, VA (Virginia (VA) dayflower, Commelina virginica), bluegrass (annual bluegrass, Poa annua), quackgrass (Elytrigia repens), mallow (common mallow, Malva sylvestris), buckwheat, wild (wild buckwheat, Polygonum convolvulus), leafy spurge (Euphorbia esula), common chickweed (Stellaria media), wild poinsettia (Euphorbia heterophylla), pigweed, palmer (palmer pigweed, Amaranthus palmeri), and pigweed (redroot pigweed, Amaranthus retroflexus) were planted into a blend of loam soil and sand and treated preemergence with test chemicals formulated in a non-phytotoxic solvent mixture which included a surfactant.
(§2) Treated plants and controls were maintained in a greenhouse for 21 days, after which time all species were compared to controls and visually evaluated. Plant response ratings, summarized in Table E, are based on a scale of 0 to 100 where 0 is no effect and 100 is complete control. A dash (-) response means no test result.

Experiment [3] deals with mustard, black. In words: Test E preemergence. The experiment is classed as in vivo, Brassica nigra. The settings on record: 21 days, scale 0 to 100.
Source text: as §1, §2

For experiment [4], the system named is dayflower, VA. In words: Test E preemergence. The experiment is classed as in vivo, Commelina virginica. The settings on record: 21 days, scale 0 to 100.
Source text: as §1, §2

Experiment [5] concerns pigweed. Kind of experiment: Test E preemergence. The experiment is classed as in vivo, Amaranthus retroflexus. To be noted: 21 days, scale 0 to 100.
Source text: as §1, §2

For `CCOc1cc(C(=O)NC2CC2)nn1Cc1ccnc(C(F)(F)F)c1` [Compound 189], the entries for the “Plant response rating, Oat, Wild” value in experiment [1] (62 g ai/ha), in experiment [1] (125 g ai/ha) and in experiment [1] (250 g ai/ha) were 45, 75 and 100, respectively. Further, the “Plant response rating, Kochia” value in experiment [2] (4 g ai/ha) was 98; in experiment [2] (8 g ai/ha), 100; in experiment [2] (16 g ai/ha) it was 100; in experiment [2] (31 g ai/ha), 100; in experiment [2] (62 g ai/ha), 100. Further, the “Plant response rating, Mustard, Black” value in experiment [3] (4 g ai/ha) is 95; in experiment [3] (8 g ai/ha), 98; in experiment [3] (16 g ai/ha) it was 100; in experiment [3] (31 g ai/ha), 100; in experiment [3] (62 g ai/ha) it was 100. Further, the “Plant response rating, Dayflower, VA” value was 0 in experiment [4] (4 g ai/ha); 30 in experiment [4] (8 g ai/ha); 90 in experiment [4] (16 g ai/ha); 100 in experiment [4] (31 g ai/ha); 100 in experiment [4] (62 g ai/ha). For the same compound, the “Plant response rating, Pigweed” value is 60 in experiment [5] (4 g ai/ha); 60 in experiment [5] (8 g ai/ha); 100 in experiment [5] (16 g ai/ha); 100 in experiment [5] (31 g ai/ha); 100 in experiment [5] (62 g ai/ha).
